Assays:
[1] = tested on: cells that do not express the odorant receptors (HEK293T); test: Mock transfection control experiment (Example 5); type: cell-based
Procedure: (§1) Functional dose-response experiments were performed to evaluate the level of DMTS activity of the modified cell line expressing individual putative DMTS receptors. Using a cell-based assay, mouse receptor Olfr1193, Olfr1093, Olfr1097, Olrf166, Olfr169, Olfr738 and Olfr742, and human receptor OR4S2 and OR52N5 were tested in an HEK293T cell line wherein the endogenous RTP1 gene has been activated and the odorant receptor chaperone protein was expressed (described in WO2016/201153). The mouse receptor genes were tagged with a Lucy-FLAG®-Rho tag combination and the human receptors were tagged with a Rho-FLAG® tag combination resulting in a tag:receptor fusion protein for the cell based assay. Receptor genes were co-transfected with the canonical olfactory human G-protein alpha subunit Golf gene and were exposed to increasing concentrations of the malodor odorant. Co-expression of the human Golf activates the Gs transduction pathway that leads to an internal cAMP increase upon binding to the appropriate ligand. Odorant-induced activity was detected by measuring the cAMP increase in the cytosol using an Homogeneous Time Resolved Fluorescence (HTRF) based kit (CisBio, cAMP dynamic 2 kit, cat. 62AM4PEJ). […]

[2] = biological target: T1, mouse receptor Olfr1193 (Mus musculus, UniProt A2AV13); test: cell-based dose-response, cAMP increase by HTRF, HEK293T cells (endogenous RTP1 activated) co-transfected with human Golf, Lucy-FLAG-Rho tagged receptor; details: FIG. 5, Example 5, SEQ ID NO: 2
T1 construct: cAMP HTRF
T1 sequence (A2AV13 1-318): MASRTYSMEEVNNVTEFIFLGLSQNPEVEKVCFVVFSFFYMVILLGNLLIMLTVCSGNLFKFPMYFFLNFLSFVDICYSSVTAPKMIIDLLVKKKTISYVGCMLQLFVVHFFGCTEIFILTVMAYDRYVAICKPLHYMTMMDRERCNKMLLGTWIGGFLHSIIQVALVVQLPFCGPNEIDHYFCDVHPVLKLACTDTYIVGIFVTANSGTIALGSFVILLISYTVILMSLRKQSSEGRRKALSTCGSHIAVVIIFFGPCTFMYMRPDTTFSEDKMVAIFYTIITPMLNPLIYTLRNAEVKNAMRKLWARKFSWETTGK
Procedure: (§2) Functional dose-response experiments were performed to evaluate the level of DMTS activity of the modified cell line expressing individual putative DMTS receptors. Using a cell-based assay, mouse receptor Olfr1193, Olfr1093, Olfr1097, Olrf166, Olfr169, Olfr738 and Olfr742, and human receptor OR4S2 and OR52N5 were tested in an HEK293T cell line wherein the endogenous RTP1 gene has been activated and the odorant receptor chaperone protein was expressed (described in WO2016/201153). The mouse receptor genes were tagged with a Lucy-FLAG®-Rho tag combination and the human receptors were tagged with a Rho-FLAG® tag combination resulting in a tag:receptor fusion protein for the cell based assay. Receptor genes were co-transfected with the canonical olfactory human G-protein alpha subunit Golf gene and were exposed to increasing concentrations of the malodor odorant. Co-expression of the human Golf activates the Gs transduction pathway that leads to an internal cAMP increase upon binding to the appropriate ligand. Odorant-induced activity was detected by measuring the cAMP increase in the cytosol using an Homogeneous Time Resolved Fluorescence (HTRF) based kit (CisBio, cAMP dynamic 2 kit, cat. 62AM4PEJ). […] The activity levels are reported by the potency of the DMTS induced-response for each receptor as a measure of the EC50 value (the effective concentration at which the receptor responds at its half-maximal activation efficacy level for a given compound).
(§3) Functional dose-response experiments were performed to confirm the DMTS activity on the DMTS receptors identified in Example 2 and to further characterize their response to DMDS. Using the same cell-based assay described in Example 2, mouse receptors Olfr1193, Olfr1093, Olfr1097, Olfr166, Olfr169, Olfr738, Olfr742 and of human odorant receptor OR4S2 were tested with increasing concentration of DMTS, DMDS or butyric acid (control). […] A weak response for OR4S2 and Olfr169 to butyric acid was visible but was too weak to consider butyric acid as a representative ligand for these receptors. The activity levels are reported by the potency of DMTS or DMDS induced-response for each receptor as a measure of the EC50 value, EC50DMTS and EC50DMDS respectively. […] Competitive antagonists at the malodor binding site of these receptors have the potential to reduce the unpleasant perception of both DMTS and DMDS.

[3] = biological target: T2, mouse receptor Olfr742 (Mus musculus, UniProt A2RTP5); test: as above; details: FIG. 5, Example 5, SEQ ID NO: 14
T2 construct: cAMP HTRF
T2 sequence (A2RTP5 1-311): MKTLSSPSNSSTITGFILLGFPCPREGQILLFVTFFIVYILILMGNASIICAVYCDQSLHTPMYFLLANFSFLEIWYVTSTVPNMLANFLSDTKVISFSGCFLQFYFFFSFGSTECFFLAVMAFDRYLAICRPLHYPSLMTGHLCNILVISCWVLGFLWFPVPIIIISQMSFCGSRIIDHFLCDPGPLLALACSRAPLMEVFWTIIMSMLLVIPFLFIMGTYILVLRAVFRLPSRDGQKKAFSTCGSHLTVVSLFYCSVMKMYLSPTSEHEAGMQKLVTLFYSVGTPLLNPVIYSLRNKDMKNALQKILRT
Procedure: as §2, §3

[4] = biological target: T3, mouse receptor Olfr166 (Mus musculus, UniProt Q0VEL6); test: as above; details: FIG. 5, Example 5, SEQ ID NO: 8
T3 construct: cAMP HTRF
T3 sequence (Q0VEL6 1-312): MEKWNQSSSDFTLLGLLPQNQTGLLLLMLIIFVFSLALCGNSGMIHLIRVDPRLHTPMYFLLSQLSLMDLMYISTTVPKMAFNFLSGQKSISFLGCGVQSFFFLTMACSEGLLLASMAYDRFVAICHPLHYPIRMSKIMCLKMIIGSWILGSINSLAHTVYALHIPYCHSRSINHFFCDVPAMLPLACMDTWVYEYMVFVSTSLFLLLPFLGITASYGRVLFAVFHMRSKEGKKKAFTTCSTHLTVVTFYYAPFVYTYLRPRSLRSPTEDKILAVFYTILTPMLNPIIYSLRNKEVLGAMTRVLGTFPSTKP
Procedure: as §2, §3

[5] = biological target: T4, mouse receptor Olfr1093 (Mus musculus, UniProt B2RR12); test: as above; details: FIG. 5, Example 5, SEQ ID NO: 4
T4 construct: cAMP HTRF
T4 sequence (B2RR12 1-322): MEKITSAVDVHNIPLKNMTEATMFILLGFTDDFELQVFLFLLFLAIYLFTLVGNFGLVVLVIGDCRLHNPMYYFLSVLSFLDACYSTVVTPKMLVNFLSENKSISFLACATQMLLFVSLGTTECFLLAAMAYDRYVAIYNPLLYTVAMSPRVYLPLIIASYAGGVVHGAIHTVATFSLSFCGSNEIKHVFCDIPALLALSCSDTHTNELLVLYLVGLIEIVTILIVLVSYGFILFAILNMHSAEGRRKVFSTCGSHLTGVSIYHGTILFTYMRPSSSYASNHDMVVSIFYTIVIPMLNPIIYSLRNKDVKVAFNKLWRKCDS
Procedure: as §2, §3

[6] = biological target: T5, mouse receptor Olfr1097 (Mus musculus, UniProt Q8VGA2); test: as above; details: FIG. 5, Example 5, SEQ ID NO: 6
T5 construct: cAMP HTRF
T5 sequence (Q8VGA2 1-315): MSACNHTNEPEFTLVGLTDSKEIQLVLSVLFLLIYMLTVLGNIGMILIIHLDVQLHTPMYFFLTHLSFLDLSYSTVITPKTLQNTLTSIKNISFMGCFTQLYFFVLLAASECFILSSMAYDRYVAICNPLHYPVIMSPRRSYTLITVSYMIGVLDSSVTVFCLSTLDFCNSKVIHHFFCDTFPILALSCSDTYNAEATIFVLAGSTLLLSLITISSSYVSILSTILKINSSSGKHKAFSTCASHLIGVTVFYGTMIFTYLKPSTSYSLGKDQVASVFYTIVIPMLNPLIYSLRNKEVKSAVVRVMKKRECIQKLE
Procedure: as §2, §3

[7] = biological target: T6, mouse receptor Olfr169 (Mus musculus, UniProt Q7TS53); test: as above; details: FIG. 5, Example 5, SEQ ID NO: 10
T6 construct: cAMP HTRF
T6 sequence (Q7TS53 1-313): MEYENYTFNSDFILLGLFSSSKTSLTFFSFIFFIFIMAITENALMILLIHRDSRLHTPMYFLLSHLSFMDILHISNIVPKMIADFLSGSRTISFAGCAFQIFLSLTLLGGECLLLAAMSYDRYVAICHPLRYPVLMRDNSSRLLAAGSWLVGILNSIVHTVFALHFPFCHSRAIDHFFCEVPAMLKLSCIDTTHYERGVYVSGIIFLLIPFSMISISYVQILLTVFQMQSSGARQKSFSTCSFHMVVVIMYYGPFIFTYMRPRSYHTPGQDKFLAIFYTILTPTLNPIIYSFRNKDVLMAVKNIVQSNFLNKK
Procedure: as §2, §3

[8] = biological target: T7, mouse receptor Olfr738 (Mus musculus, UniProt L7N1X7); test: as above; details: FIG. 5, Example 5, SEQ ID NO: 12
T7 construct: cAMP HTRF
T7 sequence (L7N1X7 1-311): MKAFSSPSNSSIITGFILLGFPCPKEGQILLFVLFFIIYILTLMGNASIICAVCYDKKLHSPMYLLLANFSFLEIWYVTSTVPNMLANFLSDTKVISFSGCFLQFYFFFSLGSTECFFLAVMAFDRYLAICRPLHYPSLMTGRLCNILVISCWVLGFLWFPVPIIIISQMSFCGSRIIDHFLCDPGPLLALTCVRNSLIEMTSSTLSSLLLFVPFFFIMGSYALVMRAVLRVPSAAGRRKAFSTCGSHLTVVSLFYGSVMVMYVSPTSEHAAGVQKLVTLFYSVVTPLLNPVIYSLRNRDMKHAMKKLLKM
Procedure: as §2, §3

[9] = tested on: mouse receptors Olfr1193, Olfr1093, Olfr1097, Olfr166, Olfr169, Olfr738, Olfr742 and human odorant receptor OR4S2; test: cAMP HTRF dose-response assay, DMTS/DMDS response profiles (Example 5); type: cell-based; details: increasing concentration of compound; relative to butyric acid control
Procedure: as §1

[10] = tested on: mouse receptor Olfr1193, Olfr1093, Olfr1097, Olrf166, Olfr169, Olfr738 and Olfr742, and human receptor OR4S2 and OR52N5; test: cAMP HTRF dose-response assay in HEK293T cells expressing odorant receptors (Example 2); type: cell-based; details: increasing concentrations of odorant, receptors co-transfected with human Golf
[11] = biological target: T8, OR4S2 (Homo sapiens, UniProt Q8NH73); test: cAMP HTRF dose-response assay (Example 5), OR4S2; type: cell-based; set-up: expressed in transfected cells; details: increasing concentration
T8 sequence (Q8NH73 1-311): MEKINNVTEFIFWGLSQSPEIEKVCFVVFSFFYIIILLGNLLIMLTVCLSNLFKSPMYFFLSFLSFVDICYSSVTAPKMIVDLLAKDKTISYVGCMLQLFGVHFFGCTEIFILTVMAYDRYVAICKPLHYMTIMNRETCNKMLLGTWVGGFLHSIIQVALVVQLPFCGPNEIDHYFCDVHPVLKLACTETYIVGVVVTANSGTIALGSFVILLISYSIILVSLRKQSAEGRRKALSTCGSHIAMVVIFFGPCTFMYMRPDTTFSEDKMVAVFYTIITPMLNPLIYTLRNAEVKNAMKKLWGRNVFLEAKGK
Procedure: as §1

[12] = tested on: Olfr169; test: cAMP HTRF dose-response assay (Example 5), Olfr169; type: cell-based, mouse; details: increasing concentration
Procedure: as §1

`CSSC` [DMDS, dimethyl disulfide] was tested. Which “activity upon exposure in mock transfected cells” value [1] did it give?
The value was “did not show activity”.

And the EC50 [2]?
Its EC50 is 40 µM.

And the EC50 [3]?
The EC50 was 69 µM.

What about the EC50 [4] of the same compound?
Its EC50 is 12 µM.

And the EC50 [5]?
The EC50 was 458 µM.

And the EC50 [6]?
The EC50 was 87 µM.

And the EC50 [7]?
Its EC50 is 102 µM.

And the EC50 [8]?
Its EC50 is 355 µM.

And the “receptor activity (cAMP increase)” value [9]?
The value was “strong dose-dependent increase of the receptor activity”.

How did the “receptor activity (cAMP increase in the cytosol)” value [10] turn out when `CCCC(=O)O` [butyric acid] was run?
Its value is “not”.

And the “response to butyric acid (cAMP)” value [11]?
The value was “weak response”.

What about the “response to butyric acid (cAMP)” value [12] of the same compound?
Its value is “weak response”.

— patent US11787847B2, “Method of identifying malodor modulating compounds” (FIRMENICH SA, priority 2017, dated 2023)
